The target of test [1] is human AURORA B1–344–INCENP835–903 complex (Homo sapiens, UniProt Q96GD4). In words: In vitro kinase assay on AURORA B–INCENP complex, substrate histone H3. The test is classed as biochemical.
For test [2], the target named is T1, MPS1 (Homo sapiens, UniProt P33981).
T1 sequence (P33981 1-857): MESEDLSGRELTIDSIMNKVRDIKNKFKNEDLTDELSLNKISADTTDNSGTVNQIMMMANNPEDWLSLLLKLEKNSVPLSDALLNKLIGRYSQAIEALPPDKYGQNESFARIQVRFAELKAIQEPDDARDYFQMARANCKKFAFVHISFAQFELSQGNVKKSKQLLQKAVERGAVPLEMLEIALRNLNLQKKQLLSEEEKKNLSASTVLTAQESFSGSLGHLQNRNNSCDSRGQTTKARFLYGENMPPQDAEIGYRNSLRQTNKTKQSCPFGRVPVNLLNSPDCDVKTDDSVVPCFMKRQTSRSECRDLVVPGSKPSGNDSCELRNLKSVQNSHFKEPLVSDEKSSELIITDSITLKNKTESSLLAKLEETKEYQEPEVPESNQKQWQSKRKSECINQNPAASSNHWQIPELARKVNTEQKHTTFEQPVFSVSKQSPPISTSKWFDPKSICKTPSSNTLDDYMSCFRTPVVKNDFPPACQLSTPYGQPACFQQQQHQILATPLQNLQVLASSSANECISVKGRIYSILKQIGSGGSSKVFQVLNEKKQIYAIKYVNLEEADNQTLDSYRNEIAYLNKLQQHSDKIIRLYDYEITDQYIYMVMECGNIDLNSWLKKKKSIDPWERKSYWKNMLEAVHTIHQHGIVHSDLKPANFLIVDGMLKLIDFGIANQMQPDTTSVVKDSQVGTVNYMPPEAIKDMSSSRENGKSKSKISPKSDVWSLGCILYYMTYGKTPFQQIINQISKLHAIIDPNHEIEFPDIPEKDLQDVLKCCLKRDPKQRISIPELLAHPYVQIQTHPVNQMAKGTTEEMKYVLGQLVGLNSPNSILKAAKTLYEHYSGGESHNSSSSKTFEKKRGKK
Briefly: In vitro kinase assay on MPS1. To be noted: for MPS1 inhibition in vitro: 1 µM. The test is classed as biochemical.

The test system of test [3] is HeLa cells. Briefly: Spindle checkpoint: duration of mitotic arrest, time-lapse video microscopy. The test is classed as cell-based, human.
Test [4] relates to HeLa cells. In words: Cytokinesis, time-lapse experiment. The test is classed as cell-based, human.
The test system of test [5] is P-S10-H3 (AURORA B substrate). Briefly: P-S10-H3 levels by Western blotting in mitotic HeLa cell lysates. The test is classed as cell-based, human. (In general: Immunoblotting shows a protein as a band on a membrane.)
The test system of test [6] is HeLa cells. In words: Chromosome congression / alignment, immunofluorescence. The test is classed as cell-based, human. To be noted: 100 µM.
For test [7], the target named is T1, MPS1. In words: Kinetochore localization of MPS1, immunofluorescence. The test is classed as cell-based. To be noted: 0.5 µM; nocodazole.
The subject of test [8] is BUB1. In words: In vitro kinase assay on BUB1. The test is classed as biochemical, human.
For test [9], the system named is MAD2. The following applies: 100 nM hesperadin, ref Yang et al., 2009, cited from earlier work.
The subject of test [10] is ROD, ZWILCH, ZW10, SPINDLY, MAD1. Briefly: Kinetochore localization of RZZ, SPINDLY and MAD1, immunofluorescence. It is filed as cell-based, human.
In test [11] the test system is P-S7–CENP-A (AURORA B substrate). Briefly: Kinetochore P-S7–CENP-A levels, immunofluorescence. The test is classed as cell-based, human.
Test [12] has as its system CDK1–CYCLIN B. To be noted: 1 µM.
Test [13] concerns HeLa cells. To be noted: concentrations up to 10 µM; MG132.
Test [14] concerns TAO1. To be noted: 1 µM.
For test [15], the system named is HeLa cells. The following applies: cold treatment.
Test [16] concerns PRP4. To be noted: 1 µM.
In test [17] the test system is HASPIN. To be noted: 1 µM.
Test [18] deals with NEK2A. To be noted: 1 µM.
Test [19] has as its system PLK1. The following applies: 1 µM.
In test [20] the test system is MAPKs. The following applies: 1 µM; ref D’Alise et al., 2008; cited from earlier work.
In test [21] the test system is HeLa cells.
For test [22], the system named is AURORA B. To be noted: HeLa cells.

These results are taken from article PMC2911657 (The Journal of Cell Biology, 2010).

Structures are written as SMILES. Entries after “also recorded” stand apart in the source; their conditions may differ. Read-outs that look alike come from different tables or passages of the source. Some results are limits rather than exact numbers.

Sequence of human AURORA B1–344–INCENP835–903 complex (Q96GD4 whole entry): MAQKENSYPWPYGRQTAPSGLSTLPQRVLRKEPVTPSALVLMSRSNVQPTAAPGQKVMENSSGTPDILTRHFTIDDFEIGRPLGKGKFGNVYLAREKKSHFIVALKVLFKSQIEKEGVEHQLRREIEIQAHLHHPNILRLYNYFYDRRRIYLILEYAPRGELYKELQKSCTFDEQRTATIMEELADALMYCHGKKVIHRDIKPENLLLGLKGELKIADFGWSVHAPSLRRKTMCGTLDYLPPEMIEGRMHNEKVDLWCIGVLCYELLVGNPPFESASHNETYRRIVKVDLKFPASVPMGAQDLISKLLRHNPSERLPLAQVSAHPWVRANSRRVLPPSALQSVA
Sequence of human AURORA B1–344–INCENP835–903 complex (Q9NQS7 835-903 partner limits assumed): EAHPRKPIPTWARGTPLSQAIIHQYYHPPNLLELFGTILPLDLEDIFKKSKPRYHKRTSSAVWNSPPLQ

Regarding `Oc1c2ccccc2c2c3c(cccc13)N=N2` [SP600125], the “IC50 for AURORA B compared with IC50 for MPS1” value in [1] is given as “significantly lower”. The compound further returned an IC50 in [2] of roughly 2.5 µM.
Consider `N#CC(=C(/N)Sc1ccccc1N)/C(C#N)=C(/N)Sc1ccccc1N` [U0126], for which, in test [3] (10 µM), the “effect on duration of the spindle checkpoint” value was “does not affect the duration of the spindle checkpoint”.
As to `COc1cc2c(Nc3ccc(NC(=O)c4ccccc4)cc3)ncnc2cc1OCCCN1CCOCC1` [ZM447439], the “concentration range in which cytokinesis is impaired” value in test [4] (time-lapse) was in the range of 0.1 to 0.5 µM. For the same compound, the “concentration inhibiting P-S10-H3” value in test [5] (Western blotting) is listed as no more than 500 nM. For the same compound, in test [2], the “MPS1 inhibition in vitro” value is reported as “did not inhibit”.
Take `Cc1ccc2c(c1)C(=O)C1(O)CCN(c3ccccc3)C1=N2` (stereo not drawn) [blebbistatin]: in [3] (unpublished data), the “ability of mitotic HeLa cells to maintain a nocodazole-mediated arrest” value is given as “did not significantly affect”. Besides, the “effect on chromosome alignment” value in test [6] is on record as “did not cause any evident effects; also recorded: does not cause evident perturbations”.
As to `CCS(=O)(=O)Nc1ccc2c(c1)/C(=C(/Nc1ccc(CN3CCCCC3)cc1)c1ccccc1)C(=O)N2` [hesperadin], in test [7], the MPS1 kinetochore staining entry is “prevented kinetochore localization”. In addition, in test [4] (5–10 nM range), the “cells with impaired cytokinesis” value was 100%. The “BUB1 inhibition in vitro” value in test [8] (1 µM hesperadin) is listed as “failed to observe significant MPS1 (and BUB1) inhibition”. Besides, the values for the MAD2 at kinetochores result in test [9] (high nocodazole (3.2 µM)) and in [9] (low nocodazole concentrations) were “retained on kinetochores” and “absent from kinetochores”, respectively. Further, in [10] (0.5–1.0 µM, high concentrations of nocodazole, unpublished data), the “MAD1 and RZZ complex at kinetochores” value is reported as “lost from kinetochores”. Moreover, in [11] (100 nM), the “P-S7–CENP-A antigen” value is listed as “invisible”. Besides, the “MPS1 inhibition in vitro” value in test [2] is on record as “failed to observe significant MPS1 (and BUB1) inhibition”.
With `c1nc2nc(Nc3ccc(N4CCOCC4)cc3)nc(NC3CCCCC3)c2[nH]1` [reversine], in [12], the “effect on CDK1–CYCLIN B kinase activity” value is listed as “failed to alter the activity”. The “inhibition of spindle bipolarization” value in [13] is recorded as “did not inhibit”. Moreover, the “effect on TAO1 kinase activity” value in [14] is “failed to alter the activity”. The “inhibition of kinetochore fiber formation” value in test [15] was “did not inhibit”. Moreover, the “effect on PRP4 kinase activity” value in test [16] is on record as “failed to alter the activity”. For the same compound, the “effect on HASPIN kinase activity” value in test [17] is “failed to alter the activity”. Also, the effect on cytokinesis result in test [4] (0.5 µM) is reported as “does not significantly inhibit”; in test [4] (1 µM) it was “unaffected”. The “effect on BUB1 kinase activity” value in test [8] (1 µM) is “failed to alter the activity”. In test [18], the “effect on NEK2A kinase activity” value is recorded as “failed to alter the activity”. Also, the “effect on PLK1 kinase activity” value in test [19] is “failed to alter the activity”. The “spindle checkpoint in the presence of Taxol, STLC or BI2536” value in test [3] (500 nM Taxol, 10 µM STLC or BI2536) was “caused an override of the checkpoint”. In test [20], the “inhibition of MAPKs” value is “not significantly inhibited”. In addition, in [10] (0.5 µM reversine, 330 nM nocodazole, MG132), the “kinetochore localization of ROD, ZWILCH, ZW10, SPINDLY and MAD1” value is listed as “largely evicted from kinetochores”. The “MAD1 localization to kinetochores” value in test [10] (nocodazole 0.33 or 3.3 µM) is “failed to localize to kinetochores”. Also, in test [21], the “effect on centrosome duplication” value is “failed to see an effect”. The “effect on P-S10-H3” value in [5] (0.5 µM) is recorded as “no effects”. Further, the “kinetochore localization of AURORA B” value in test [22] is given as “unaffected”. The “kinetochore levels of P–CENP-A” value in test [11] (up to 5 µM, nocodazole) is recorded as “not influenced; also recorded: unaltered”.
With `COC[C@H]1OC(=O)c2coc3c2[C@@]1(C)C1=C(C3=O)[C@@H]2CCC(=O)[C@@]2(C)C[C@H]1OC(C)=O` [wortmannin], in [3] (100 nM), the “effect on duration of the spindle checkpoint” value is given as “does not affect the duration of the spindle checkpoint”.

For orientation: IC50 means the concentration that gives 50% inhibition. The low end stands for higher potency, the high end for lower potency.
